In US20220289691A1, “5-AMINO-SUBSTITUTED PYRAZOLES AND TRIAZOLES AS PEST CONTROL AGENTS” (Bayer Aktiengesellschaft, priority 2019, published 2022) one finds pest or weed control data, which are given here for 33 compounds.

One assay concerns Diabrotica balteata. Description: Diabrotica balteata spray test. Type of assay: in vivo. The conditions noted are these: 168 h, beetle larvae on wheat, after 7 days, read-out: efficacy (wheat plant growth); for pest or weed control at 125 g/ha: 125 g/ha (=40 μg/cavity); for pest or weed control at 500 g/ha: 500 g/ha (=160 μg/cavity); for pest or weed control at 100 g/ha: 100 g/ha (=32 μg/cavity). As for the experimental part:
Diabrotica balteata—Spray Test Solvent: 78 parts by weight of acetone • • 1.5 parts by weight of dimethylformamide Emulsifier: alkylaryl polyglycol ether
(§1) To produce a suitable active compound formulation, 1 part by weight of active compound is dissolved using the stated parts by weight of solvent and made up with water containing an emulsifier concentration of 1000 ppm until the desired concentration is attained. To produce further test concentrations, the formulation is diluted with emulsifier-containing water.
Pre-swollen wheat grains (Triticum aestivum) are incubated in a multiwell plate filled with agar and a little water for one day (5 seed grains per cavity). The germinated wheat grains are sprayed with an active compound formulation of the desired concentration. Subsequently, each cavity is infected with 10-20 beetle larvae of Diabrotica balteata.
After 7 days, the efficacy in % is determined. 100% means that all wheat plants have grown as in the untreated, uninfected control; 0% means that no wheat plant has grown.

For the next assay, the system named is Spodoptera frugiperda. Description: Spodoptera frugiperda spray test. Format: in vivo. The conditions noted are these: foliar, 168 h, 100 g/ha, maize leaf discs, after 7 days, read-out: efficacy (caterpillars killed). As for the experimental part: Spodoptera frugiperda—Spray Test Solvent: 78.0 parts by weight of acetone • • 1.5 parts by weight of dimethylformamide Emulsifier: alkylaryl polyglycol ether
as §1
Leaf discs of maize (Zea mays) are sprayed with an active compound formulation of the desired concentration and, after drying, populated with caterpillars of the fall armyworm (Spodoptera frugiperda).
After 7 days, the efficacy in % is determined. 100% means that all the caterpillars have been killed; 0% means that no caterpillar has been killed.

Molecules are shown by their SMILES.

Take `CC(=O)NCCNc1nc(-c2ccc(NC(=O)N=C3SCC(=O)N3c3ccccc3C(C)C)cc2)nn1-c1ccc(OC(F)(F)F)cc1` [Compound I-033]: in the assay on Diabrotica balteata, the pest or weed control at 125 g/ha was 100% and the pest or weed control at 500 g/ha was 100%. The pest or weed control at 100 g/ha in the assay with Spodoptera frugiperda came out at 100%.

Turning to `CC(=O)Nc1nc(-c2ccc(NC(=O)N=C3SCC(=O)N3c3ccccc3C(C)C)cc2)nn1-c1ccc(OC(F)(F)F)cc1` [Compound I-034], in the assay with Diabrotica balteata, the pest or weed control at 100 g/ha was 100% and the pest or weed control at 500 g/ha was 100%. Further, in the assay with Spodoptera frugiperda, the pest or weed control at 100 g/ha was 100%.

As to `CNc1nc(-c2ccc(C=NN=C3SCC(=O)CN3c3ccccc3C(C)C)cc2)nn1-c1ccc(OC(F)(F)F)cc1` [Compound I-103], the pest or weed control at 100 g/ha in the assay with Diabrotica balteata and in the assay on Spodoptera frugiperda was 100% each time.

For `COCCCNc1nc(-c2ccc(C=NNC(=S)Nc3ccccc3C(C)C)cc2)nn1-c1ccc(OC(F)(F)F)cc1` [Compound I-073], the pest or weed control at 100 g/ha in the assay on Diabrotica balteata and in the assay with Spodoptera frugiperda was 100% throughout.

For `CCOC(=O)C(=O)Nc1nc(-c2ccc(NC(=O)N=C3SCC(=O)N3c3ccccc3C(C)C)cc2)nn1-c1ccc(OC(F)(F)F)cc1` [Compound I-037], in the assay with Diabrotica balteata, the pest or weed control at 100 g/ha worked out at 80% and the pest or weed control at 500 g/ha was determined as 100%. Also, the pest or weed control at 100 g/ha in the assay on Spodoptera frugiperda amounted to 83%.

In the case of `CC(C)c1ccccc1N1C(=O)CSC1=NC(=O)Nc1ccc(-c2nc(N)n(-c3ccc(OC(F)(F)C(F)(F)F)cc3)n2)cc1` [Compound I-055], in the assay on Diabrotica balteata, the pest or weed control at 100 g/ha is 80% and the pest or weed control at 500 g/ha is 100%. In the assay with Spodoptera frugiperda, the pest or weed control at 100 g/ha worked out at 100%.

On to `CNc1nc(-c2ccc(C=NNC(=S)Nc3cc(C)ccc3C(C)C)cc2)nn1-c1ccc(OC(F)(F)F)cc1` [Compound I-070], for which the pest or weed control at 100 g/ha in the assay on Diabrotica balteata and in the assay on Spodoptera frugiperda was 100% throughout.

Regarding `CC(C)c1ccccc1NC(=S)NN=Cc1ccc(-c2nc(N)n(-c3ccc(OC(F)(F)F)cc3)n2)cc1` [Compound I-021], in the assay with Diabrotica balteata, the pest or weed control at 125 g/ha was 100% and the pest or weed control at 500 g/ha was 100%. In addition, in the assay on Spodoptera frugiperda, the pest or weed control at 100 g/ha stood at 100%.

Consider `CNC(=O)Nc1nc(-c2ccc(NC(=O)N=C3SCC(=O)N3c3ccccc3C(C)C)cc2)nn1-c1ccc(OC(F)(F)F)cc1` [Compound I-030], for which the pest or weed control at 500 g/ha in the assay with Diabrotica balteata stood at 100%. Moreover, the pest or weed control at 100 g/ha in the assay with Spodoptera frugiperda came to 100%.

Turning to `CNc1nc(-c2ccc(C=NN=C3SCC(=O)N3c3ccccc3C(C)C)nc2)nn1-c1ccc(OC(F)(F)F)cc1` [Compound I-118], the pest or weed control at 100 g/ha with Diabrotica balteata and with Spodoptera frugiperda was 100% each time.

`CC(=O)Nc1cc(-c2ccc(C=NN=C3SCC(=O)N3c3ccccc3C(C)C)cc2)nn1-c1ccc(OC(F)(F)F)cc1` [Compound I-039]: the figures for the pest or weed control at 100 g/ha in the assay with Diabrotica balteata and with Spodoptera frugiperda were 80% and 100%, respectively.

Turning to `CC(C)c1ccccc1NC(=S)NN=Cc1ccc(-c2nc(NC3COC3)n(-c3ccc(OC(F)(F)F)cc3)n2)cc1` [Compound I-049], in the assay with Diabrotica balteata, the pest or weed control at 100 g/ha was 100% and the pest or weed control at 500 g/ha turned out to be 100%. Also, in the assay with Spodoptera frugiperda, the pest or weed control at 100 g/ha is 100%.

As for `CNc1nc(-c2ccc(C=NNC(=S)Nc3ccccc3C(C)C)cc2C)nn1-c1ccc(OC(F)(F)F)cc1` [Compound I-119], the pest or weed control at 100 g/ha with Diabrotica balteata and in the assay with Spodoptera frugiperda was 100% each time.

Take `CNc1nc(-c2ccc(C=NN=C3SCCCN3c3ccccc3C(C)C)cc2)nn1-c1ccc(OC(F)(F)C(F)(F)F)cc1` [Compound I-126, 3-[4-({[3-(2-isopropylphenyl)-1,3-thiazinan-2-yliden]hydrazono}methyl)phenyl]-N-methyl-1-[4-(pentafluoroethoxy)phenyl]-1H-1,2,4-triazol-5-amine]: the pest or weed control at 100 g/ha in the assay on Diabrotica balteata and in the assay with Spodoptera frugiperda was 100% each time.

`CNc1nc(-c2ccc(C=NN=C3SC(C)C(=O)N3c3ccccc3C(C)C)cc2)nn1-c1ccc(OC(F)(F)F)cc1` (stereo not shown) [Compound I-098]: the pest or weed control at 100 g/ha in the assay with Diabrotica balteata and in the assay with Spodoptera frugiperda was 100% each time.

As to `CCNc1nc(-c2ccc(C=NNC(=S)Nc3ccccc3C(C)C)cc2)nn1-c1ccc(OC(F)(F)F)cc1` [Compound I-050], in the assay on Diabrotica balteata, the pest or weed control at 100 g/ha is 100% and the pest or weed control at 500 g/ha is 100%. In addition, the pest or weed control at 100 g/ha in the assay on Spodoptera frugiperda worked out at 100%.

Take `CC(C)c1ccccc1N1C(=O)CSC1=NN=Cc1ccc(-c2nc(NC3CC3)n(-c3ccc(OC(F)(F)F)cc3)n2)cc1` [Compound I-058]: in the assay with Diabrotica balteata, the pest or weed control at 100 g/ha is 100% and the pest or weed control at 500 g/ha was found to be 100%. Also, the pest or weed control at 100 g/ha in the assay with Spodoptera frugiperda turned out to be 100%.

As to `CC(C)c1ccccc1NC(=S)NN=Cc1ccc(-c2nc(NS(=O)(=O)C3CC3)n(-c3ccc(OC(F)(F)F)cc3)n2)cc1` [Compound I-023], in the assay with Diabrotica balteata, the pest or weed control at 125 g/ha was determined as 100% and the pest or weed control at 500 g/ha amounted to 100%. Further, the pest or weed control at 100 g/ha in the assay with Spodoptera frugiperda is 100%.

As for `CC(C)c1ccccc1N1C(=O)CSC1=NN=Cc1ccc(-c2nc(NCCS(C)(=O)=O)n(-c3ccc(OC(F)(F)F)cc3)n2)cc1` [Compound I-095], the pest or weed control at 100 g/ha with Diabrotica balteata and in the assay on Spodoptera frugiperda was 100% in each case.

As to `CCC(=O)Nc1nc(-c2ccc(NC(=O)N=C3SCC(=O)N3c3ccccc3C(C)C)cc2)nn1-c1ccc(OC(F)(F)F)cc1` [Compound I-036], the results for the pest or weed control at 100 g/ha with Diabrotica balteata and in the assay with Spodoptera frugiperda were 80% and 100%, respectively. In addition, in the assay on Diabrotica balteata, the pest or weed control at 500 g/ha was found to be 100%.

On to `CCS(=O)(=O)Nc1nc(-c2ccc(C=NNC(=S)Nc3ccccc3C(C)C)cc2)nn1-c1ccc(OC(F)(F)F)cc1` [Compound I-022], for which, in the assay with Diabrotica balteata, the pest or weed control at 125 g/ha is 100% and the pest or weed control at 500 g/ha is 100%. In addition, the pest or weed control at 100 g/ha in the assay on Spodoptera frugiperda was 100%.

As for `CNc1nc(-c2ccc(C=NN3CCCSC3=Nc3ccccc3C(C)C)cc2)nn1-c1ccc(OC(F)(F)F)cc1` [Compound I-102], the pest or weed control at 100 g/ha with Diabrotica balteata and in the assay on Spodoptera frugiperda was 100% each time.

Consider `CC(C)c1ccccc1N1C(=O)CSC1=NN=Cc1ccc(-c2nc(NC3CCOCC3)n(-c3ccc(OC(F)(F)F)cc3)n2)cc1` [Compound I-087], for which the pest or weed control at 100 g/ha in the assay with Diabrotica balteata and in the assay with Spodoptera frugiperda was 100% each time.

`CNc1nc(-c2ccc(/C=N/NC(=S)Nc3ccccc3C(C)C)c(Cl)c2)nn1-c1ccc(OC(F)(F)F)cc1` [Compound I-114]: the pest or weed control at 100 g/ha in the assay on Diabrotica balteata and in the assay on Spodoptera frugiperda was 100% in each case.

Regarding `CC(C)c1ccccc1N1C(=O)CSC1=NC(=O)Nc1ccc(-c2nc(NC3CCC3)n(-c3ccc(OC(F)(F)F)cc3)n2)cc1` [Compound I-041], in the assay on Diabrotica balteata, the pest or weed control at 100 g/ha came to 100% and the pest or weed control at 500 g/ha was 100%. In addition, the pest or weed control at 100 g/ha with Spodoptera frugiperda amounted to 100%.

Regarding `CNc1nc(-c2ccc(C=NNC(=S)Nc3ccccc3C(C)C)cc2)nn1-c1ccc(OC(F)(F)C(F)(F)F)cc1` [Compound I-067], in the assay with Diabrotica balteata, the pest or weed control at 100 g/ha was 100% and the pest or weed control at 500 g/ha worked out at 100%. Further, the pest or weed control at 100 g/ha with Spodoptera frugiperda was 100%.

As for `CNc1nc(-c2ccc(C=NNC(=S)Nc3ccccc3C(C)C)cc2C#N)nn1-c1ccc(OC(F)(F)F)cc1` [Compound I-123], the pest or weed control at 100 g/ha with Diabrotica balteata and in the assay with Spodoptera frugiperda was 100% throughout.

In the case of `CC(C)c1ccccc1N1C(=O)CSC1=NC(=O)Nc1ccc(-c2nc(NC(=O)C(F)F)n(-c3ccc(OC(F)(F)F)cc3)n2)cc1` [Compound I-038], in the assay on Diabrotica balteata, the pest or weed control at 100 g/ha was 80% and the pest or weed control at 500 g/ha is 100%. Moreover, the pest or weed control at 100 g/ha with Spodoptera frugiperda turned out to be 100%.

On to `CC(C)c1ccccc1N1C(=O)CSC1=NC(=O)Nc1ccc(-c2nc(N)n(-c3ccc(OC(F)(F)F)cc3)n2)cc1` [Compound I-025], for which, in the assay on Diabrotica balteata, the pest or weed control at 125 g/ha was 100% and the pest or weed control at 500 g/ha is 100%. For the same compound, the pest or weed control at 100 g/ha in the assay on Spodoptera frugiperda amounted to 100%.

Regarding `CC(C)c1ccccc1N1C(=O)CSC1=NC(=O)Nc1ccc(-c2nc(NC3CC3)n(-c3ccc(OC(F)(F)F)cc3)n2)cc1` [Compound I-029], in the assay with Diabrotica balteata, the pest or weed control at 125 g/ha was found to be 100% and the pest or weed control at 500 g/ha was found to be 100%. In addition, in the assay with Spodoptera frugiperda, the pest or weed control at 100 g/ha stood at 100%.

Take `CC(C)Nc1nc(-c2ccc(NC(=O)N=C3SCC(=O)N3c3ccccc3C(C)C)cc2)nn1-c1ccc(OC(F)(F)F)cc1` [Compound I-043]: in the assay with Diabrotica balteata, the pest or weed control at 100 g/ha came to 100% and the pest or weed control at 500 g/ha was 100%. Moreover, the pest or weed control at 100 g/ha in the assay with Spodoptera frugiperda turned out to be 100%.

On to `CON(C)c1nc(-c2ccc(NC(=O)N=C3SCC(=O)N3c3ccccc3C(C)C)cc2)nn1-c1ccc(OC(F)(F)F)cc1` [Compound I-046], for which, in the assay on Diabrotica balteata, the pest or weed control at 100 g/ha turned out to be 100% and the pest or weed control at 500 g/ha is 100%. The pest or weed control at 100 g/ha in the assay with Spodoptera frugiperda was determined as 100%.

As for `CNc1nc(-c2ccc(C=NN=C3SCC(=O)N3c3ccccc3C(C)C)cc2)nn1-c1ccc(OC(F)(F)C(F)(F)F)cc1` [Compound I-064], in the assay with Diabrotica balteata, the pest or weed control at 100 g/ha was 100% and the pest or weed control at 500 g/ha amounted to 100%. Also, in the assay on Spodoptera frugiperda, the pest or weed control at 100 g/ha came to 100%.
